Experimental data published in patent US10815275B2, “Antimicrobial peptoids with improved selectivity and use thereof” (priority 2018, dated 2020).
≈ marks a conversion by molar mass, not a printed value. Like-named read-outs stand apart in the source and are kept apart here. Non-standard residues stand in square brackets, D forms with d. Residues, ends and D or L forms follow the SMILES beside them. Nspe = C[C@H](NCC(=O)O)c1ccccc1; Nphe = O=C(O)CNCc1ccccc1; Nlys = NCCCCNCC(=O)O

What was measured:
E. coli strain ATCC25922 = assay type: cell-based; conditions: for MBC E. coli: ATCC25922; for MIC E. coli: ATCC25922, 18 h
Experimental: (§1) In order to measure antimicrobial activity of the peptoids, Gram-positive S. aureus strain KCTC1621, or Gram-negative E. coli strain ATCC25922 was treated with the peptoids prepared in Preparation Example 1, and minimum inhibitory concentrations were measured. Peptoid NOS. 1 and 2 are already known peptoids and were used for the purpose of making a comparison with novel peptoids in terms of antimicrobial activity.
(§2) Specifically, S. aureus strain KCTC1621 or E. coli strain ATCC25922 was inoculated into Mueller Hinton Broth (MHB2) liquid medium on which cations were adjusted, cultured at a temperature of 37° C. for 18 hours, and then subcultured for 4 hours. Thereafter, the strains were diluted with MHB2 liquid medium containing 0.2% bovine serum albumin and 0.01% acetic acid so that each bacterial number was 2×10^5 colony-forming units (CFU) per 1 mL, and dispensed into 96-well microtiter plates at 100 μL each. A peptoid stock which is 40-fold more concentrated than a concentration to be tested was added to each well at 2.5 μL or lower so that the peptoid stock was 2-fold serially diluted using sterile water. Thereafter, the plates were incubated at a temperature of 37° C. for 18 hours.
(§3) Thereafter, absorbance was measured at a wavelength of 600 nm using a microplate reader (Bio-Rad). The lowest peptoid concentration that completely suppresses growth of microorganisms was measured by a minimum inhibitory concentration (MIC) and a minimum bactericidal concentration (MBC), and the measurement results are shown in Table 5 below. Each of the MIC values was calculated as an average value of numerical values obtained through three independent experiments.

[1] = tested on: S. aureus strain KCTC1621; assay type: cell-based; conditions: for MBC S. aureus: KCTC1621; for MIC S. aureus: KCTC1621, 18 h
Experimental: as §1, §2, §3

red blood cells = assay: Hemolytic activity on red blood cells; assay type: cell-based, mouse
Experimental: In order to identify, through red blood cell hemolytic activity in mice, whether the peptoids synthesized in Preparation Example 1 are cytotoxic, red blood cells isolated from 10 mL of mouse blood were washed three times with phosphate-buffered saline (PBS, mixed solution of 35 mM phosphate buffer/150 mM NaCl, pH 7.4), and then centrifuged at a centrifugal force of 1,000 ×g for 10 minutes. A 10% (v/v) red blood cell solution diluted with PBS was dispensed into a 96-well microtiter plate at 150 μL each, and then a peptide solution was added at 50 μL each. Thereafter, the 96-well microtiter plate was incubated at a temperature of 37° C. for 1 hour.
The incubated 96-well microtiter plate was centrifuged at a centrifugal force of 1,000×g for 5 minutes. Thereafter, supernatant was taken at 100 μL each and transferred to a new 96-well microtiter plate. Then, absorbance at a wavelength of 540 nm was measured (Table 6).
In this case, a value obtained in a case of being treated with 0.1% (v/v) Triton X-100 was set as 100% hemolysis, and hemolytic activity (degree of cell destruction) of the peptoids was calculated using the following Equation 1. In the Equation 1, A is absorbance of the peptoid solution at a wavelength of 540 nm, B is absorbance of 0.1% Triton X-100 at a wavelength of 540 nm, and C is absorbance of the PBS solution at a wavelength of 540 nm. In this case, Peptoid NO. […] Degree of cell destruction (% hemolysis)=(A−C)/(B−C)[…] [Equation 1]
In Table 6, HD10 means a peptoid concentration which causes 10% hemolysis of red blood cells, and HD50 means a peptoid concentration which causes 50% hemolysis of red blood cells. In addition, Hmax is a hemolysis rate (%) at 200 μM which is the highest peptoid concentration used in the experiment.
Hemolytic activity of Peptoid NOS. 1, 18 to 23, and the peptide Pexiganan was measured in the same manner as in Experimental Example 2.

P. aeruginosa (PA01) = assay: MIC in multidrug-resistant bacteria panel, modified microdilution; assay type: cell-based; conditions: overnight, 37° C.
Experimental: (§4) Minimum inhibitory concentrations of the prepared peptoids for multidrug-resistant bacteria were measured using a modified microdilution method in Difco Mueller Hinton medium, and tests were done on a panel of bacterial pathogens which have resistance and tolerance against common antibiotics.
(§5) Briefly, a peptoid concentrate, which is 10-fold more concentrated than a final concentration, was serially diluted with a medium containing 0.2% bovine serum albumin and 0.01% acetic acid. 10 μL of the 10-fold concentrated peptoid concentrate and 90 μL of Muller Hinton medium were added to each well of a 96-well polypropylene microtitre plate. Bacteria were added to the plate so that a final concentration thereof was 2×10^5 CFU/mL, and then incubated overnight at a temperature of 37° C. The minimum inhibitory concentration was defined as a concentration at which no bacterial growth is observed.

[2] = tested on: S. epidermidis (ET-024 MRSA); assay: as above; assay type: cell-based; conditions: overnight, 37° C.
Experimental: as §4, §5

E. coli = assay: Selectivity analysis, HD10 divided by MIC for E. coli; conditions: HD10 of Table 6 divided by MIC for E. coli ATCC25922
Experimental: In order to identify changes in selectivity depending on alteration of degree of folding in helical structure of peptoids, selectivity of each peptoid was calculated using the resultant values measured in the Experimental Examples 1 and 2. The selectivity was obtained by dividing the HD10 value by the minimum inhibitory concentration for E. coli (Table 8).

E. coli (63103 ESBL) = assay: MIC in multidrug-resistant bacteria panel, modified microdilution; assay type: cell-based; conditions: overnight, 37° C.
Experimental: as §4, §5

B. subtilis = assay type: cell-based; conditions: 18 h
Experimental: (§6) In order to measure antimicrobial activity of the peptoids, Gram-positive B. subtilis or Gram-negative E. coli strain DH5α was treated with Peptoid NOS. 1, 18 to 23, and the peptide Pexiganan, and minimum inhibitory concentrations were measured. Peptoid NOS. 1 and 2, and the peptide Pexiganan are already known antimicrobial peptoids and peptides, and were used for the purpose of making a comparison with novel peptoids in terms of antimicrobial activity.
(§7) Specifically, B. subtilis or E. coli DHS a was inoculated into LB liquid medium, and cultured at a temperature of 37° C. for 18 hours. Thereafter, the bacteria were diluted with LB medium so that each bacterial number was 2×10^5 colony-forming units (CFU) per 1 mL, and dispensed into 96-well microtiter plates at 100 μL each. The peptoid, which is 2-fold serially diluted using sterile water, was added to each well at 100 μL each. The plates were incubated at a temperature of 37° C. for 18 hours.
(§8) Thereafter, absorbance was measured at a wavelength of 600 nm using a microplate reader (Bio-Rad). The lowest peptoid concentration that completely suppresses growth of microorganisms was measured by a minimum inhibitory concentration (MIC), and the measurement results are shown in Table 12 below. Each of the minimum inhibitory concentration values was calculated as an average value of numerical values obtained through three independent experiments.

E. coli strain DH5α = assay: Antimicrobial activity of peptoids with altered cationic residues, MIC; assay type: cell-based; conditions: LB medium, 18 h
Experimental: as §6, §7, §8

in vitro = assay type: cell-based
Experimental: In order to determine whether the peptoids were cytotoxic against human cell lines, […] cell line (Korean Cell Line Bank) which is a human lung cell line was cultured in a DMEM (Dulbecco's modified Eagle's medium) culture solution containing 10% (v/v) fetal bovine serum (FBS) at 5% CO2 and a temperature of 37° C. 100 μL of DMEM medium was dispensed into each well of a 96-well microtiter plate so that the number of cells was 1.3×10^4, and then incubated overnight at a temperature of 37° C. in a 5% CO2 incubator. In this case, a DMEM medium was used as a negative control. Thereafter, the peptoid which is 2-fold serially diluted using sterile water was added to each well, and then incubated for 24 hours.
After incubation, 20 μL of an MTS solution [3-(4,5-dimethylthiazol-2-yl)-5-(3-carboxymethoxyphenyl)-2-(4-sulfophenyl)-2H-tetrazolium, inner salt; MTS] was added thereto and incubated at a temperature of 37° C. for 4 hours. Thereafter, % survival was calculated by measuring absorbance at a wavelength of 490 nm using an ELISA reader. The % survival was calculated as a percentage obtained by dividing the absorbance value for a well-treated with the peptoid by the absorbance value for a well containing control cells which had not been treated with the peptoid.

S. aureus (ATCC25923) = assay: MIC in multidrug-resistant bacteria panel, modified microdilution; assay type: cell-based; conditions: overnight, 37° C.
Experimental: as §4, §5

Structure (SMILES) | MBC E. coli (E. coli strain ATCC25922) [µM] | MIC E. coli (E. coli strain ATCC25922) [µM] | MBC S. aureus [1] [µM] | MIC S. aureus [1] [µM] | HD50 (red blood cells) | minimum inhibitory concentration P. aeruginosa (PA01) (P. aeruginosa (PA01)) | minimum inhibitory concentration S. epidermidis (ET-024 MRSA) [2] | Selectivity [HD10/MIC (E. coli)] (E. coli) | minimum inhibitory concentration E. coli (63103 ESBL) (E. coli (63103 ESBL)) | MIC B. subtilis (B. subtilis) [µM] | MIC E. coli (E. coli strain DH5α) [µM] | CC50 at 24 h (in vitro; human) [µM] | HD10 (red blood cells) | minimum inhibitory concentration S. aureus (ATCC25923) (S. aureus (ATCC25923)) | CC50 at 24 h (in vitro; concentration indicating 50% survival, 24 h, MTS, read-out: LC50) [µM]
C[C@@H](c1ccccc1)N(CC(=O)N(CCCCN)CC(=O)N(CC(=O)N(CC(=O)N(CCCCN)CC(=O)N(CC(=O)N(CC(=O)N(CCCCN)CC(=O)N(CC(=O)N(CC(N)=O)Cc1ccccc1)Cc1ccccc1)Cc1ccccc1)Cc1ccccc1)Cc1ccccc1)Cc1ccccc1)C(=O)CN(C(=O)CNCCCCN)[C@@H](C)c1ccccc1 [compound 17] (H-[Nlys][Nspe][Nspe][Nlys][Nphe][Nphe][Nlys][Nphe][Nphe][Nlys][Nphe][Nphe]-NH2) | 25 (≈ 43.4 µg/mL) | 25 (≈ 43.4 µg/mL) | 3.1 (≈ 5.38 µg/mL) | 3.1 (≈ 5.38 µg/mL) | > 200 | 6.3 | <0.8 to 0.8 | 4.8 | – | – | – | – | – | – | –
NCCCCNCC(=O)N(CC(=O)N(CC(=O)N(CCCCN)CC(=O)N(CC(=O)N(CC(=O)N(CCCCN)CC(=O)N(CC(=O)N(CC(=O)N(CCCCN)CC(=O)N(CC(=O)N(CC(N)=O)Cc1ccccc1)Cc1ccccc1)Cc1ccccc1)Cc1ccccc1)Cc1ccccc1)Cc1ccccc1)Cc1ccccc1)Cc1ccccc1 [compound 2] (H-[Nlys][Nphe][Nphe][Nlys][Nphe][Nphe][Nlys][Nphe][Nphe][Nlys][Nphe][Nphe]-NH2) | >25 | 25 (≈ 42.7 µg/mL) | 6.3 (≈ 10.8 µg/mL) | 3.1 (≈ 5.29 µg/mL) | >200/>200 | 6.3 | <0.8 to 0.8 | >8.0 | 12.5 | – | – | – | – | – | –
C[C@@H](c1ccccc1)N(CC(=O)N(CCCCN)CC(=O)N(CC(=O)N(CC(=O)N(CCCCN)CC(=O)N(CC(=O)N(CC(=O)N(CCCCN)CC(N)=O)[C@@H](C)c1ccccc1)[C@@H](C)c1ccccc1)[C@@H](C)c1ccccc1)[C@@H](C)c1ccccc1)C(=O)CN(C(=O)CNCCCCN)[C@@H](C)c1ccccc1 [compound 23] (H-[Nlys][Nspe][Nspe][Nlys][Nspe][Nspe][Nlys][Nspe][Nspe][Nlys]-NH2) | – | – | – | – | – | – | – | – | – | 0.8 (≈ 1.2 µg/mL) | 1.6 (≈ 2.4 µg/mL) | 80.5 | – | – | –
C[C@@H](c1ccc(F)cc1)N(CC(N)=O)C(=O)CN(C(=O)CN(CCCCN)C(=O)CN(C(=O)CN(C(=O)CN(CCCCN)C(=O)CN(C(=O)CN(C(=O)CN(CCCCN)C(=O)CN(C(=O)CN(C(=O)CNCCCCN)[C@@H](C)c1ccc(F)cc1)[C@@H](C)c1ccc(F)cc1)[C@@H](C)c1ccc(F)cc1)[C@@H](C)c1ccc(F)cc1)[C@@H](C)c1ccc(F)cc1)[C@@H](C)c1ccc(F)cc1)[C@@H](C)c1ccc(F)cc1 [compound 21] | – | – | – | – | <6.25/<6.25 | – | – | – | – | 0.4 (≈ 0.785 µg/mL) | – | 9.5 | <6.25/<6.25 | – | –
C[C@@H](c1ccccc1)N(CC(N)=O)C(=O)CN(C(=O)CN(CCCCN)C(=O)CN(Cc1ccccc1)C(=O)CN(Cc1ccccc1)C(=O)CN(CCCCN)C(=O)CN(Cc1ccccc1)C(=O)CN(Cc1ccccc1)C(=O)CN(CCCCN)C(=O)CN(C(=O)CN(C(=O)CNCCCCN)[C@@H](C)c1ccccc1)[C@@H](C)c1ccccc1)[C@@H](C)c1ccccc1 [compound 11] | 25 (≈ 44.1 µg/mL) | 12.5 (≈ 22 µg/mL) | 6.3 (≈ 11.1 µg/mL) | 3.1 (≈ 5.47 µg/mL) | > 200 | 6.3 | <0.8 to 0.8 | 4.9 | 6.3 | – | – | – | 61.6 | 3.1 | –
C[C@@H](c1ccccc1)N(CC(=O)N(CCCCN)CC(=O)N(CC(=O)N(CC(=O)N(CCCCN)CC(=O)N(CC(=O)N(CC(=O)N(CCCCN)CC(=O)N(CC(=O)N(CC(=O)N(CCCCN)CC(N)=O)[C@@H](C)c1ccccc1)[C@@H](C)c1ccccc1)[C@@H](C)c1ccccc1)[C@@H](C)c1ccccc1)[C@@H](C)c1ccccc1)[C@@H](C)c1ccccc1)C(=O)CN(C(=O)CNCCCCN)[C@@H](C)c1ccccc1 [compound 22] (H-[Nlys][Nspe][Nspe][Nlys][Nspe][Nspe][Nlys][Nspe][Nspe][Nlys][Nspe][Nspe][Nlys]-NH2) | – | – | – | – | – | – | – | – | – | 0.4 (≈ 0.779 µg/mL) | – | – | 19.5 | – | 10
